The source of these data is PMC10115881, “Disrupting the α-synuclein-ESCRT interaction with a peptide inhibitor mitigates neurodegeneration in preclinical models of Parkinson’s disease” (Nature Communications, 2023).

In assay [1] the test system is A53T a-syn. Kind of assay: Human a-syn immunoblot of cortical neuron lysates. In kind it is cell-based. As to conditions: neuronal lysates. On the procedure:
Pregnant rats (E17) of the Sprague-Dawley strain were purchased from Envigo. Embryos were surgically removed from the mothers and cortices dissected in Hanks Balanced salt solution (Gibco). The meninges were removed, and cells were dissociated using a papain dissociation system (Worthington) before being resuspended in Neurobasal medium A supplemented with antibiotic-antimycotic solution (Gibco), L-glutamine substitute (GlutaMAX™; Gibco) and factor B27 (Gibco). Cells were plated on poly-D-lysine coated glass coverslips at a density of 5 × 10^5 cells/well, or on poly-D-lysine coated six-well cell culture plates at a density of 2 × 10^6 cells/well, and incubated at 37 °C in 5% CO2 with half media changes every 3 days. Cells were transduced with A53T a-syn or EV AAVs at 2 days post-isolation at a MOI of 3000. After 3 days, media containing AAV vectors were removed. […] Cells were fixed with 4% paraformaldehyde (PFA) for immunofluorescence staining or lysed for immunoblotting at 8 days post-isolation.
Infected neurons were scraped from 6-well dishes and lysed with RIPA buffer containing protease inhibitor cocktail (Roche). The Triton-X-100 soluble fraction was then separated from the insoluble pellet by centrifugation. Protein concentration was quantified using the DC protein assay (BioRad). […]
(In general: Immunoblotting shows a protein as a band on a membrane.)

Assay [2] deals with pS129 a-syn puncta. As to the kind of experiment: PFF-induced a-syn seeding, pS129 a-syn puncta in cortical neurons. In kind it is cell-based, rat. The procedure:
PFFs synthesized from recombinant human a-syn were added to primary neuronal cultures to seed recruitment of endogenous a-syn into pS129 a-syn^+ aggregates. Recombinant human a-syn PFFs were purchased from StressMarq Biosciences (SPR-322B). Cells were plated on poly-D-lysine coated glass coverslips in 24-well cell culture plates at a density of 5 × 10^5 cells/well, and incubated at 37 °C in 5% CO2 with half media changes every 3 days. […] On day 8 post-isolation, cells were treated with 1.5 µg of recombinant a-syn PFFs. […]
Confocal images of primary cortical neurons, iPSC-derived dopaminergic neurons, and LAMP1 staining within the SN were processed using Imaris software (Oxford instruments). […] Mean pixel intensity per GFP^+ cell (for experiments using GFP-tagged peptides) or RFP^+ cell (for experiments using RFP-tagged peptides) was calculated for a-syn or LAMP1 signal using the software’s surfaces module. The software’s surfaces module was used to identify GFP^+/NeuN^+ cells, and number of pS129 a-syn^+ puncta per GFP^+/NeuN^+ cortical neuron was counted using the software’s spots module. Mean pixel intensity per RFP^+/NeuN^+ cortical neuron was calculated for Rab7, cathepsin B, or cathepsin D signals using the software’s surfaces module. […]

Assay [3] concerns cathepsin B. Kind of assay: Cathepsin B fluorescence in rat cortical neurons. The assay is classed as cell-based. As to conditions: A53T a-syn. From the text:
(§1) Pregnant rats (E17) of the Sprague-Dawley strain were purchased from Envigo. Embryos were surgically removed from the mothers and cortices dissected in Hanks Balanced salt solution (Gibco). The meninges were removed, and cells were dissociated using a papain dissociation system (Worthington) before being resuspended in Neurobasal medium A supplemented with antibiotic-antimycotic solution (Gibco), L-glutamine substitute (GlutaMAX™; Gibco) and factor B27 (Gibco). […]
(§2) After fixation, cells were permeabilized with 0.2% Triton-X-100 for 15 min, washed three times with PBS and then incubated with blocking solution (1% BSA, 22.52 mg/mL glycine, 0.1% Tween-20 in PBS or 0.4% saponin, 1% BSA, and 5% goat or donkey serum in PBS) for 1 h. […] Following another three washes with PBS, nuclei were counterstained with DAPI (ThermoFisher) and then coverslips were mounted on slides using Dako fluorescence mounting medium (Agilent) and sealed using clear nail varnish.
(§3) Confocal images of primary cortical neurons, iPSC-derived dopaminergic neurons, and LAMP1 staining within the SN were processed using Imaris software (Oxford instruments). […] Mean pixel intensity per GFP^+ cell (for experiments using GFP-tagged peptides) or RFP^+ cell (for experiments using RFP-tagged peptides) was calculated for a-syn or LAMP1 signal using the software’s surfaces module. […]

Assay [4] has as its system cathepsin D. As to the kind of experiment: Cathepsin D fluorescence in rat cortical neurons. The assay is classed as cell-based. As to conditions: A53T a-syn.
Source text: as §1, §2, §3

Assay [5] has as its system LAMP1 in iPSC-derived dopaminergic neurons. As to the kind of experiment: LAMP1 fluorescence in iPSC-derived dopaminergic neurons. The assay is classed as cell-based, human. As to conditions: A53T a-syn iPSC-derived dopaminergic neurons. The procedure: A53T a-syn iCell Dopa neurons (catalog #R1109) and isogenic control iCell Dopa neurons (catalog #R1088) were purchased from Fujifilm Cellular Dynamics (Madison, WI, USA) and cultured as per the manufacturer’s instructions. Briefly, cells were plated in complete maintenance medium provided by the manufacturer on poly-L-ornithine/laminin coated μ plates (ibidi). Cells recovered from thawing for 24 h and then were transduced with AAV-Scramble1.3-RFP or AAV-PDpep1.3-RFP at MOI of 3000 for 48 h at which time media was completely changed. Cells were fixed using 4% PFA at 7 days post-plating.
Confocal images of immunofluorescent staining were acquired with a Zeiss LSM880 confocal microscope equipped with 405, 488, 555, and 639 nm laser lines. All images were taken within the linear range at constant gain and pinhole settings at optimal resolution settings determined by the software. […]
as §3

Turning to DEEIERQLKALG [PDpep1.3], the “Effect on total A53T a-syn protein” value in assay [1] is “corresponding reduction in total A53T a-syn protein levels”. In addition, the “Effect on endogenous a-syn aggregates” value in assay [2] is listed as “reduced the number of endogenous a-syn aggregates”. In addition, in assay [3], the “Effect on cathepsin B” value is listed as “reduced to control levels”. Also, in assay [4], the “Effect on cathepsin D” value was “reduced to control levels”. In assay [5], the “Effect on LAMP1 levels, iPSC neurons” value is on record as “LAMP1 levels to those of isogenic controls”.
